The record followed here is patent publication US9149539B1, “Crystalline naloxol-PEG conjugate” (priority 2010, dated 2015).

The nature of the data set: Moisture uptake by dynamic vapor sorption (DVS). The data set is classed as physicochemical.

As to mPEG7-O-naloxol phosphate salt, the “Hysteresis between adsorption and desorption (DVS)” value (desorption) was “no hysteresis”. Besides, the “Moisture uptake, DVS isotherm curve” value (whole isotherm) is “continuous (exponential) moisture uptake from the start”.
